Data set [1] in a line: Assay (IV) determination of solubility. Type of data set: physicochemical. On the procedure:
Assay (IV)—Determination of Solubility
The mimylin peptide was dissolved in water at ˜500 nmol/ml and mixed 1:1 with a series of buffers (100 mM glycylglycine pH 3.0, 100 mM glycylglycine pH 4.0, 100 mM glycylglycine pH 5.0, 100 mM bistrispropane pH 6.0, 100 mM bistrispropane pH 6.5, 100 mM bistrispropane pH 7.0, 100 mM bistrispropane pH 7.5, 100 mM bistrispropane pH 8.0).

The target in a further data set is T1, rat calcitonin receptor (Rattus norvegicus, UniProt P32214).
T1 construct: expressed in transfected cells; host or cells: BHK tk'ts 13 (transient, FuGENE 6)
T1 sequence (P32214 25-479 isoform P32214-2 limits assumed): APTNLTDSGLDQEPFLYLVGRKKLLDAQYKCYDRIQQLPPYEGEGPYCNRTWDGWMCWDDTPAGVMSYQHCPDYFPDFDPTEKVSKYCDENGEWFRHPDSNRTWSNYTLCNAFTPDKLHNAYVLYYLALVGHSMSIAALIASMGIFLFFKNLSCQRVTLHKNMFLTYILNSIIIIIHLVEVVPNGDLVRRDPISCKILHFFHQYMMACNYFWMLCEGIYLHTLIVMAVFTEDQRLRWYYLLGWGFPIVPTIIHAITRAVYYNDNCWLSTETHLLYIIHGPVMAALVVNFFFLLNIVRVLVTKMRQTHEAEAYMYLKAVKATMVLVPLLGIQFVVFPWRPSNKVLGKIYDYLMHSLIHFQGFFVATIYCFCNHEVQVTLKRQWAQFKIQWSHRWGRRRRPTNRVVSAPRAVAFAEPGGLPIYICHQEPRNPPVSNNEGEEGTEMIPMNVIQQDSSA
The data set can be described thus: Assay (VIII) binding to the rat calcitonin receptor. The note with it: membranes; read-out: rCT-R binding IC50. The gist of the method:
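Competition binding on membranes from BHK tk'ts 13 cells transiently transfected with rat calcitonin receptor, otherwise run as the human receptor assay. Plates washed in cold HBSS, lysed in 0.1 M NaOH/1% SDS and scintillation-counted. IC50 from one-site competition fit as affinity measure.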

In brackets after ≈: the same amount, converted by molar mass. Numbered stars: 1 amine (or outer) side, 2 acyl side, 3 side chain; on linkers, the order of the positions; unused ones are H or OH. Peptide text beside a SMILES is read from it. * marks the point of attachment. C20 diacid = O=C(O)CCCCCCCCCCCCCCCCCCC(=O)*; C16 diacid = O=C(O)CCCCCCCCCCCCCCC(=O)*; γGlu = O=C(O)[C@H](CCC(=O)[*:2])N[*:1]; C14 diacid = O=C(O)CCCCCCCCCCCCC(=O)*

Take `CC(C)C[C@H](NC(=O)[C@H](C)NC(=O)[C@H](C)NC(=O)[C@@H](NC(=O)[C@H](CO)NC(=O)[C@H](CC(C)C)NC(=O)[C@H](CCC(=O)O)NC(=O)[C@H](CO)NC(=O)[C@H](C)NC(=O)CCCCCCCCCCCCCCC(=O)O)[C@@H](C)O)C(=O)NCC(=O)N[C@@H](CCCNC(=N)N)C(=O)N[C@@H](CC(C)C)C(=O)N[C@@H](CO)C(=O)N[C@@H](C)C(=O)N[C@@H](CCC(=O)O)C(=O)N[C@@H](CC(C)C)C(=O)N[C@@H](Cc1cnc[nH]1)C(=O)N[C@@H](CCC(=O)O)C(=O)N[C@@H](CC(C)C)C(=O)N[C@@H](C)C(=O)N[C@H](C(=O)N[C@@H](CC(C)C)C(=O)N1CCC[C@H]1C(=O)N[C@@H](CCCNC(=N)N)C(=O)N[C@H](C(=O)N[C@@H](CCC(=O)O)C(=O)N[C@H](C(=O)NCC(=O)N[C@@H](CO)C(=O)NCC(=O)N[C@@H](CO)C(=O)N1CCC[C@H]1C(N)=O)[C@@H](C)O)[C@@H](C)O)[C@@H](C)O` [compound 49, [N-terminal(C16 diacid), des1, 30S, 31G]mimylin] ({C16 diacid}-ASELSTAALGRLSAELHELATLPRTETGSGSP-NH2): the Solubility result in data set [1] (pH 3.0), in data set [1] (pH 4.0), in data set [1] (pH 5.0), in data set [1] (pH 6.0), in data set [1] (pH 6.5) and in data set [1] (pH 7.0) was “≧200 μM” each time. The Solubility entry in data set [1] (pH 7.5) and in data set [1] (pH 8.0) was “≧200 μM” throughout. In addition, the IC50 on rat calcitonin receptor came out at 0.011 nM.
For `CC(C)C[C@H](NC(=O)CNC(=O)[C@H](CO)NC(=O)[C@H](C)NC(=O)CC[C@H](NC(=O)CCCCCCCCCCCCCCCCCCC(=O)O)C(=O)O)C(=O)N[C@@H](CO)C(=O)N[C@H](C(=O)N[C@@H](C)C(=O)N[C@H](C(=O)N[C@@H](CC(C)C)C(=O)NCC(=O)N[C@@H](CCCNC(=N)N)C(=O)N[C@@H](CC(C)C)C(=O)N[C@@H](CO)C(=O)N[C@@H](CCC(N)=O)C(=O)N[C@@H](CCC(=O)O)C(=O)N[C@@H](CC(C)C)C(=O)N[C@@H](Cc1cnc[nH]1)C(=O)N[C@@H](CCC(=O)O)C(=O)N[C@@H](CC(C)C)C(=O)N[C@@H](CCC(N)=O)C(=O)N[C@H](C(=O)N[C@@H](Cc1ccc(O)cc1)C(=O)N1CCC[C@H]1C(=O)N[C@@H](CCCNC(=N)N)C(=O)N[C@H](C(=O)N[C@@H](CCC(=O)O)C(=O)N[C@H](C(=O)NCC(=O)N[C@@H](CO)C(=O)N[C@@H](CCC(N)=O)C(=O)N[C@H](C(=O)N[C@@H](Cc1ccc(O)cc1)C(N)=O)[C@@H](C)O)[C@@H](C)O)[C@@H](C)O)[C@@H](C)O)C(C)C)[C@@H](C)O` [compound 119, [N-terminal(C20 diacid-gGlu), des1, 4G, 9V, 15Q, 21Q, 23Y, 30S, 31Q, 32T, 33Y]mimylin] ({C20 diacid-γGlu}-ASGLSTAVLGRLSQELHELQTYPRTETGSQTY-NH2), the Solubility entry in data set [1] (pH 3.0), in data set [1] (pH 6.0), in data set [1] (pH 6.5), in data set [1] (pH 7.0), in data set [1] (pH 7.5) and in data set [1] (pH 8.0) was “≧200 μM” in each case. The solubility at 18 h in data set [1] (pH 4.0) was 170 µM (≈ 671 µg/mL); in data set [1] (pH 5.0), 56 µM (≈ 221 µg/mL). In addition, the IC50 on rat calcitonin receptor was 0.016 nM.
Take `CC(C)C[C@H](NC(=O)[C@H](C)NC(=O)[C@H](C)NC(=O)[C@@H](NC(=O)[C@H](CO)NC(=O)[C@H](CC(C)C)NC(=O)[C@H](CCC(=O)O)NC(=O)[C@H](CO)NC(=O)[C@H](C)NC(=O)CCCCCCCCCCCCC(=O)O)[C@@H](C)O)C(=O)NCC(=O)N[C@@H](CCCNC(=N)N)C(=O)N[C@@H](CC(C)C)C(=O)N[C@@H](CO)C(=O)N[C@@H](C)C(=O)N[C@@H](CCC(=O)O)C(=O)N[C@@H](CC(C)C)C(=O)N[C@@H](Cc1cnc[nH]1)C(=O)N[C@@H](CCC(=O)O)C(=O)N[C@@H](CC(C)C)C(=O)N[C@@H](C)C(=O)N[C@H](C(=O)N[C@@H](CC(C)C)C(=O)N1CCC[C@H]1C(=O)N[C@@H](CCCNC(=N)N)C(=O)N[C@H](C(=O)N[C@@H](CCC(=O)O)C(=O)N[C@H](C(=O)NCC(=O)N[C@@H](CO)C(=O)NCC(=O)N[C@@H](CO)C(=O)N1CCC[C@H]1C(N)=O)[C@@H](C)O)[C@@H](C)O)[C@@H](C)O` [compound 51, [N-terminal(C14 diacid), des1, 30S, 31G]mimylin] ({C14 diacid}-ASELSTAALGRLSAELHELATLPRTETGSGSP-NH2): the Solubility result in data set [1] (pH 3.0), in data set [1] (pH 4.0), in data set [1] (pH 5.0), in data set [1] (pH 6.0), in data set [1] (pH 6.5) and in data set [1] (pH 7.0) was “≧200 μM” in each case. In addition, the Solubility entry in data set [1] (pH 7.5) and in data set [1] (pH 8.0) was “≧200 μM” each time. Also, at rat calcitonin receptor, the IC50 was 0.123 nM.
Turning to `CC(C)C[C@H](NC(=O)[C@H](C)NC(=O)[C@H](C)NC(=O)[C@@H](NC(=O)[C@H](CO)NC(=O)[C@H](CC(C)C)NC(=O)[C@H](CCC(=O)O)NC(=O)[C@H](CO)NC(=O)[C@H](C)NC(=O)CC[C@H](NC(=O)CCCCCCCCCCCCC(=O)O)C(=O)O)[C@@H](C)O)C(=O)NCC(=O)N[C@@H](CCCNC(=N)N)C(=O)N[C@@H](CC(C)C)C(=O)N[C@@H](CO)C(=O)N[C@@H](C)C(=O)N[C@@H](CCC(=O)O)C(=O)N[C@@H](CC(C)C)C(=O)N[C@@H](Cc1cnc[nH]1)C(=O)N[C@@H](CCC(=O)O)C(=O)N[C@@H](CC(C)C)C(=O)N[C@@H](C)C(=O)N[C@H](C(=O)N[C@@H](CC(C)C)C(=O)N1CCC[C@H]1C(=O)N[C@@H](CCCNC(=N)N)C(=O)N[C@H](C(=O)N[C@@H](CCC(=O)O)C(=O)N[C@H](C(=O)NCC(=O)N[C@@H](CO)C(=O)NCC(=O)N[C@@H](CO)C(=O)N1CCC[C@H]1C(N)=O)[C@@H](C)O)[C@@H](C)O)[C@@H](C)O` [compound 50, [N-terminal(C14 diacid-gGlu), des1, 30S, 31G]mimylin] ({C14 diacid-γGlu}-ASELSTAALGRLSAELHELATLPRTETGSGSP-NH2), the Solubility result in data set [1] (pH 3.0), in data set [1] (pH 4.0), in data set [1] (pH 5.0), in data set [1] (pH 6.0), in data set [1] (pH 6.5) and in data set [1] (pH 7.0) was “≧200 μM” each time. Further, the Solubility entry in data set [1] (pH 7.5) and in data set [1] (pH 8.0) was “≧200 μM” each time. Besides, the IC50 on rat calcitonin receptor came to 0.017 nM.
Consider `CC(C)C[C@H](NC(=O)CNC(=O)[C@H](CO)NC(=O)[C@H](C)NC(=O)CC[C@H](NC(=O)CCCCCCCCCCCCCCCCCCC(=O)O)C(=O)O)C(=O)N[C@@H](CO)C(=O)N[C@H](C(=O)N[C@@H](C)C(=O)N[C@@H](C)C(=O)N[C@@H](CC(C)C)C(=O)NCC(=O)N[C@@H](CCCNC(=N)N)C(=O)N[C@@H](CC(C)C)C(=O)N[C@@H](CO)C(=O)N[C@@H](CCC(N)=O)C(=O)N[C@@H](CCC(=O)O)C(=O)N[C@@H](CC(C)C)C(=O)N[C@@H](Cc1cnc[nH]1)C(=O)N[C@@H](CCC(=O)O)C(=O)N[C@@H](CC(C)C)C(=O)N[C@@H](CCC(N)=O)C(=O)N[C@H](C(=O)N[C@@H](Cc1ccc(O)cc1)C(=O)N1CCC[C@H]1C(=O)N[C@@H](CCCNC(=N)N)C(=O)N[C@H](C(=O)N[C@@H](CCC(=O)O)C(=O)N[C@H](C(=O)NCC(=O)N[C@@H](CO)C(=O)N[C@@H](CCC(N)=O)C(=O)N[C@H](C(=O)N[C@@H](Cc1ccc(O)cc1)C(N)=O)[C@@H](C)O)[C@@H](C)O)[C@@H](C)O)[C@@H](C)O)[C@@H](C)O` [compound 109, [N-terminal(C20 diacid-gGlu), des1, 4G, 15Q, 21Q, 23Y, 30S, 31Q, 32T, 33Y]mimylin] ({C20 diacid-γGlu}-ASGLSTAALGRLSQELHELQTYPRTETGSQTY-NH2), for which the Solubility entry in data set [1] (pH 3.0), in data set [1] (pH 4.0), in data set [1] (pH 6.0), in data set [1] (pH 6.5), in data set [1] (pH 7.0) and in data set [1] (pH 7.5) was “≧200 μM” in each case. Further, the Solubility entry in data set [1] (pH 8.0) is recorded as “≧200 μM”. This molecule also yielded a solubility at 18 h in data set [1] (pH 5.0) of 7 µM (≈ 27.4 µg/mL). The IC50 on rat calcitonin receptor came out at 0.012 nM.

Values taken from patent US9593149B2, “Amylin and calcitonin receptor agonist” (Novo Nordisk A/S, priority 2014, dated 2017).
